Results: ChEMBL document CHEMBL1153217, “Antitubercular potential of some semisynthetic analogues of phytol” (Bioorg Med Chem Lett, 2010)
Converted amounts (≈) assume the structure as drawn. The source made the active and inactive calls. The rule behind the calls is not given here.

Tests used:
[1] = test system: Mycobacterium tuberculosis; experiment: Antitubercular activity against Mycobacterium tuberculosis H37Rv by BACTEC460 radiometric susceptibility assay; assay type: functional
Mus musculus [2] = experiment: Toxicity in Swiss albino mouse assessed as body weight at 5 mg/kg, po (reference value: 23.56+/-1.547 g); assay type: organism-based; design: dose 5 mg/kg, route oral; settings: in vivo
Mus musculus [3] = experiment: Toxicity in Swiss albino mouse assessed as body weight at 50 mg/kg, po (reference value: 23.56+/-1.547 g); assay type: organism-based; design: dose 50 mg/kg, route oral; settings: in vivo
Mus musculus [4] = experiment: Toxicity in Swiss albino mouse assessed as body weight at 300 mg/kg, po (reference value: 23.56+/-1.547 g); assay type: organism-based; design: dose 300 mg/kg, route oral; settings: in vivo
Mus musculus [5] = experiment: Toxicity in Swiss albino mouse assessed as total RBC count 5 mg/kg, po (reference value: 6.24 +/- 0.51 millions/mm'3); assay type: organism-based; design: dose 5 mg/kg, route oral; settings: in vivo
Mus musculus [6] = experiment: Toxicity in Swiss albino mouse assessed as total RBC count 50 mg/kg, po (reference value: 6.24 +/- 0.51 millions/mm'3); assay type: organism-based; design: dose 50 mg/kg, route oral; settings: in vivo
Mus musculus [7] = experiment: Toxicity in Swiss albino mouse assessed as total RBC count 300 mg/kg, po (reference value: 6.24 +/- 0.51 millions/mm'3); assay type: organism-based; design: dose 300 mg/kg, route oral; settings: in vivo
Mus musculus [8] = experiment: Toxicity in Swiss albino mouse assessed as total WBC level 5 mg/kg, po (reference value: 10.71 +/- 2.47 thousand/mm'3); assay type: organism-based; design: dose 5 mg/kg, route oral; settings: in vivo
Mus musculus [9] = experiment: Toxicity in Swiss albino mouse assessed as total WBC level 50 mg/kg, po (reference value: 10.71 +/- 2.47 thousand/mm'3); assay type: organism-based; design: dose 50 mg/kg, route oral; settings: in vivo
Mus musculus [10] = experiment: Toxicity in Swiss albino mouse assessed as total WBC level 300 mg/kg, po (reference value: 10.71 +/- 2.47 thousand/mm'3); assay type: organism-based; design: dose 300 mg/kg, route oral; settings: in vivo
Mus musculus [11] = experiment: Toxicity in Swiss albino mouse assessed as total haemoglobin level 5 mg/kg, po (reference value: 7.54 +/- 1.05 g/dl); assay type: organism-based; design: dose 5 mg/kg, route oral; settings: in vivo
Mus musculus [12] = experiment: Toxicity in Swiss albino mouse assessed as total haemoglobin level 50 mg/kg, po (reference value: 7.54 +/- 1.05 g/dl); assay type: organism-based; design: dose 50 mg/kg, route oral; settings: in vivo
Mus musculus [13] = experiment: Toxicity in Swiss albino mouse assessed as total haemoglobin level 300 mg/kg, po (reference value: 7.54 +/- 1.05 g/dl); assay type: organism-based; design: dose 300 mg/kg, route oral; settings: in vivo
Mus musculus [14] = experiment: Toxicity in Swiss albino mouse assessed as total serum total cholesterol level 5 mg/kg, po (reference value: 43.25 +/- 4.04 mg/dl); assay type: organism-based; design: dose 5 mg/kg, route oral; settings: in vivo
Mus musculus [15] = experiment: Toxicity in Swiss albino mouse assessed as total serum total cholesterol level 50 mg/kg, po (reference value: 43.25 +/- 4.04 mg/dl); assay type: organism-based; design: dose 50 mg/kg, route oral; settings: in vivo
Mus musculus [16] = experiment: Toxicity in Swiss albino mouse assessed as total serum total cholesterol level 300 mg/kg, po (reference value: 43.25 +/- 4.04 mg/dl); assay type: organism-based; design: dose 300 mg/kg, route oral; settings: in vivo
Mus musculus [17] = experiment: Toxicity in Swiss albino mouse assessed as total serum triglyceride level 5 mg/kg, po (reference value: 72.43 +/- 8.40 mg/dl); assay type: organism-based; design: dose 5 mg/kg, route oral; settings: in vivo
Mus musculus [18] = experiment: Toxicity in Swiss albino mouse assessed as total serum triglyceride level 50 mg/kg, po (reference value: 72.43 +/- 8.40 mg/dl); assay type: organism-based; design: dose 50 mg/kg, route oral; settings: in vivo
Mus musculus [19] = experiment: Toxicity in Swiss albino mouse assessed as total serum triglyceride level 300 mg/kg, po (reference value: 72.43 +/- 8.40 mg/dl); assay type: organism-based; design: dose 300 mg/kg, route oral; settings: in vivo
Mus musculus [20] = experiment: Toxicity in Swiss albino mouse assessed as total serum creatinine level 5 mg/kg, po (reference value: 0.71 +/- 0.14 mg/dl); assay type: organism-based; design: dose 5 mg/kg, route oral; settings: in vivo
Mus musculus [21] = experiment: Toxicity in Swiss albino mouse assessed as total serum creatinine level 50 mg/kg, po (reference value: 0.71 +/- 0.14 mg/dl); assay type: organism-based; design: dose 50 mg/kg, route oral; settings: in vivo
Mus musculus [22] = experiment: Toxicity in Swiss albino mouse assessed as total serum creatinine level 300 mg/kg, po (reference value: 0.71 +/- 0.14 mg/dl); assay type: organism-based; design: dose 300 mg/kg, route oral; settings: in vivo
Mus musculus [23] = experiment: Toxicity in Swiss albino mouse assessed as total SGPT level 5 mg/kg, po (reference value: 8.13 +/- 0.79 U/L); assay type: organism-based; design: dose 5 mg/kg, route oral; settings: in vivo
Mus musculus [24] = experiment: Toxicity in Swiss albino mouse assessed as total SGPT level 50 mg/kg, po (reference value: 8.13 +/- 0.79 U/L); assay type: organism-based; design: dose 50 mg/kg, route oral; settings: in vivo
Mus musculus [25] = experiment: Toxicity in Swiss albino mouse assessed as total SGPT level 300 mg/kg, po (reference value: 8.13 +/- 0.79U/L); assay type: organism-based; design: dose 300 mg/kg, route oral; settings: in vivo
Mus musculus [26] = experiment: Toxicity in Swiss albino mouse assessed as total SGOT level 5 mg/kg, po (reference value: 8.13 +/- 0.79 U/L); assay type: organism-based; design: dose 5 mg/kg, route oral; settings: in vivo
Mus musculus [27] = experiment: Toxicity in Swiss albino mouse assessed as total SGOT level 50 mg/kg, po (reference value: 8.13 +/- 0.79 U/L); assay type: organism-based; design: dose 50 mg/kg, route oral; settings: in vivo
Mus musculus [28] = experiment: Toxicity in Swiss albino mouse assessed as total SGOT level 300 mg/kg, po (reference value: 8.13 +/- 0.79 U/L); assay type: organism-based; design: dose 300 mg/kg, route oral; settings: in vivo
[29] = test system: Mycobacterium tuberculosis; experiment: Antitubercular activity against Mycobacterium tuberculosis H37Rv at 500 ug/ml by BACTEC460 radiometric susceptibility assay; assay type: functional, organism-based

## C/C(=C\CO)CCCC(C)CCCC(C)CCCC(C)C (stereo unspecified)
[1]
  MIC: 100 µg/mL (≈ 337 µM)

## C/C(=C\C=O)CCCC(C)CCCC(C)CCCC(C)C (stereo unspecified)
[1]
  MIC: 50 µg/mL (≈ 170 µM)

## CCOC(=O)/C=C/CO/N=C/C=C(\C)CCCC(C)CCCC(C)CCCC(C)C (stereo unspecified)
[1]
  MIC: 15.6 µg/mL (≈ 37 µM)
Mus musculus [2]
  Activity: 25.41 g
Mus musculus [3]
  Activity: 25.39 g
Mus musculus [4]
  Activity: 20.56 g
Mus musculus [5]
  Activity: 5980000 /mm3
Mus musculus [6]
  Activity: 6580000 /mm3
Mus musculus [7]
  Activity: 5140000 /mm3
Mus musculus [8]
  Activity: 14450 /mm3
Mus musculus [9]
  Activity: 13460 /mm3
Mus musculus [10]
  Activity: 14240 /mm3
Mus musculus [11]
  Activity: 6.41 g/dL
Mus musculus [12]
  Activity: 10.09 g/dL
Mus musculus [13]
  Activity: 5.55 g/dL
Mus musculus [14]
  Activity: 57.67 mg/dL
Mus musculus [15]
  Activity: 54.91 mg/dL
Mus musculus [16]
  Activity: 62.27 mg/dL
Mus musculus [17]
  Activity: 84.31 mg/dL
Mus musculus [18]
  Activity: 71.9 mg/dL
Mus musculus [19]
  Activity: 68.95 mg/dL
Mus musculus [20]
  Activity: 0.61 mg/dL
Mus musculus [21]
  Activity: 0.59 mg/dL
Mus musculus [22]
  Activity: 1.2 mg/dL
Mus musculus [23]
  Activity: 11.15 U/L
Mus musculus [24]
  Activity: 10.06 U/L
Mus musculus [25]
  Activity: 11.36 U/L
Mus musculus [26]
  Activity: 28.03 U/L
Mus musculus [27]
  Activity: 35.44 U/L
Mus musculus [28]
  Activity: 41.73 U/L

## C/C(=C\CN=[N+]=[N-])CCCC(C)CCCC(C)CCCC(C)C (stereo unspecified)
[29]
  MIC: inactive

## C/C(=C\C=N\O)CCCC(C)CCCC(C)CCCC(C)C (stereo unspecified)
[1]
  MIC: 25 µg/mL (≈ 80.8 µM)

## CCOC(=O)CO/N=C/C=C(\C)CCCC(C)CCCC(C)CCCC(C)C (stereo unspecified)
[1]
  MIC: 500 µg/mL (≈ 1260 µM)

## CC(C)CCCC(C)CCCC(C)CCCC1(C)OC1CO (stereo unspecified)
[29]
  MIC: inactive

## C/C(=C\COC/C=C(\C)CCCC(C)CCCC(C)CCCC(C)C)CCCC(C)CCCC(C)CCCC(C)C (stereo unspecified)
[29]
  MIC: inactive

## CN[C@@H]1[C@H](O[C@H]2[C@H](O[C@H]3[C@H](O)[C@@H](O)[C@H](N=C(N)N)[C@@H](O)[C@@H]3N=C(N)N)O[C@@H](C)[C@]2(O)C=O)O[C@@H](CO)[C@H](O)[C@H]1O [STREPTOMYCIN]
[1]
  MIC: 2 µg/mL (≈ 3.44 µM)

## C/C(=C\CBr)CCCC(C)CCCC(C)CCCC(C)C (stereo unspecified)
[29]
  MIC: inactive

## CC(=O)OC/C=C(\C)CCCC(C)CCCC(C)CCCC(C)C (stereo unspecified)
[29]
  MIC: inactive

## CO[C@H]1/C=C/O[C@@]2(C)Oc3c(C)c(O)c4c(O)c(c(/C=N/N5CCN(C)CC5)c(O)c4c3C2=O)NC(=O)/C(C)=C\C=C\[C@H](C)[C@H](O)[C@@H](C)[C@@H](O)[C@@H](C)[C@H](OC(C)=O)[C@@H]1C [RIFAMPIN]
[1]
  MIC: 2 µg/mL (≈ 2.43 µM)

## C/C(=C\COC=O)CCCC(C)CCCC(C)CCCC(C)C (stereo unspecified)
[1]
  MIC: 500 µg/mL (≈ 1540 µM)

## COc1cc(/C=C/C(O)=C/C(=O)/C=C/c2ccc(OC/C=C(\C)CCCC(C)CCCC(C)CCCC(C)C)cc2)ccc1OC/C=C(\C)CCCC(C)CCCC(C)CCCC(C)C (stereo unspecified)
[29]
  MIC: inactive
